Reference: US11292796B2 (SIGNAL PHARMACEUTICALS, LLC, priority 2008, dated 2022)

Target: T1, mTOR (Homo sapiens, UniProt P42345)
T1 construct: purchased Invitrogen PR8683A
Assay: mTOR HTR-FRET assay
Assay type: biochemical
Conditions: read-out: Act. Level (IC50 in mTor HTR-FRET assay)
Description: The following is an example of an assay that can be used to determine the mTOR inhibitory activity of a test compound. Heteroaryl Compounds were dissolved in DMSO and prepared as 10 mM stocks and diluted appropriately for the experiments. Reagents were prepared as follows:
“Simple TOR buffer” (used to dilute high glycerol TOR fraction): 10 mM Tris pH 7.4, 100 mM NaCl, 0.1% Tween-20, 1 mM DTT. Invitrogen mTOR (cat #PR8683A) was diluted in this buffer to an assay concentration of 0.200 μg/mL.
To 20 μL of the Simple mTor buffer is added 0.5 μL of test compound in DMSO. To initiate the reaction 5 μL of ATP/Substrate solution was added to 20 μL of the Simple TOR buffer solution (control) and to the compound solution prepared above.

T1 sequence (P42345 1360-2549 limits assumed): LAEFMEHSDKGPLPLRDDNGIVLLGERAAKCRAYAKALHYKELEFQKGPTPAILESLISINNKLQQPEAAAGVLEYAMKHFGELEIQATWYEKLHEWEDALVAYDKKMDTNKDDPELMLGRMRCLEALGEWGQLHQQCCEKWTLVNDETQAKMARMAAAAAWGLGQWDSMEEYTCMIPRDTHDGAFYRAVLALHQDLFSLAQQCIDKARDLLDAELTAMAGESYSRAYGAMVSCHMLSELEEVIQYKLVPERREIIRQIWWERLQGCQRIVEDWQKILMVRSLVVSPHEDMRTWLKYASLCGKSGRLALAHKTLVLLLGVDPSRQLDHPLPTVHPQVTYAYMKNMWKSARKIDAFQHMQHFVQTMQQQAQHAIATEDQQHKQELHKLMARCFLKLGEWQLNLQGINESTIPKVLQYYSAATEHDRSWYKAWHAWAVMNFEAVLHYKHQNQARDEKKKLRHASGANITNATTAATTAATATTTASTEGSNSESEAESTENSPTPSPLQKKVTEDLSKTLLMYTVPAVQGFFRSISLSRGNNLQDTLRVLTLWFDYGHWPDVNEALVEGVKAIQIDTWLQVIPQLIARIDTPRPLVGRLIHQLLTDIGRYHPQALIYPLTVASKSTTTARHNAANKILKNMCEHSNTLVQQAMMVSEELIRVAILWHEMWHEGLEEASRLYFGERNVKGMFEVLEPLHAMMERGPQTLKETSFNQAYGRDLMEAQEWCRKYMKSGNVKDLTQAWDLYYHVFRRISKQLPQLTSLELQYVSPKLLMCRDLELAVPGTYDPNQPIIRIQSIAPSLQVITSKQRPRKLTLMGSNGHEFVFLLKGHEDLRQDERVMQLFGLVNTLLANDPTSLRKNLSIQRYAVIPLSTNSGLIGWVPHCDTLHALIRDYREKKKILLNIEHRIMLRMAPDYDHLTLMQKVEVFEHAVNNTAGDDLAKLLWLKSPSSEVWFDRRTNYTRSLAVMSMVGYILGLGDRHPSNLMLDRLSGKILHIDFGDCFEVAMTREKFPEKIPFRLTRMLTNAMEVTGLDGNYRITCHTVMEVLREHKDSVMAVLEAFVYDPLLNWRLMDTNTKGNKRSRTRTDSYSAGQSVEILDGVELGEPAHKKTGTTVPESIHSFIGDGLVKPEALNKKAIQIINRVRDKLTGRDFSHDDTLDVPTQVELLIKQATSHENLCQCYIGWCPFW

| SMILES | IC50 [nM] |
| --- | --- |
| O=C1CNc2ncc(-c3cn[nH]c3)nc2N1CCC1CCOCC1 [Example 201, 7-(1H-pyrazol-4-yl)-1-(2-(tetrahydro-2H-pyran-4-yl)ethyl)-3,4-dihydropyrazino[2,3-b]pyrazin-2(1H)-one] | 1000 to 10000 |
| COCCN1CC(=O)Nc2ncc(-c3ccc(-c4nnc[nH]4)c(F)c3)nc21 [Example 59, 6-(3-fluoro-4-(4H-1,2,4-triazol-3-yl)phenyl)-4-(2-methoxyethyl)-3,4-dihydropyrazino[2,3-b]pyrazin-2(1H)-one] | 0.005 to 250 |
| CC(C)(O)c1ccc(-c2cnc3c(n2)N(Cc2cccc(C(F)(F)F)c2)C(=O)CN3)cn1 [Example 258, 7-(6-(2-hydroxypropan-2-yl)pyridin-3-yl)-1-(3-(trifluoromethyl)benzyl)-3,4-dihydropyrazino[2,3-b]pyrazin-2(1H)-one] | 0.005 to 250 |
| CO[C@H]1CC[C@@H](N2CC(=O)Nc3ncc(-c4ccc(C#N)nc4C)nc32)CC1 [Example 94, 5-(8-(cis-4-methoxycyclohexyl)-6-oxo-5,6,7,8-tetrahydropyrazino[2,3-b]pyrazin-2-yl)-6-methylpicolinonitrile] | 1000 to 10000 |
| O=C1CNc2ncc(-c3ccc(-c4nc[nH]n4)nc3)nc2N1C[C@H]1CC[C@H](O)CC1 [Example 159, 7-(6-(1H-1,2,4-triazol-3-yl)pyridin-3-yl)-1-((trans-4-hydroxycyclohexyl)methyl)-3,4-dihydropyrazino[2,3-b]pyrazin-2(1H)-one] | 0.005 to 250 |
| O=C1CNc2ncc(-c3cnc4[nH]ccc4c3)nc2N1CCC1CCOCC1 [Example 224, 7-(1H-pyrrolo[2,3-b]pyridin-5-yl)-1-(2-(tetrahydro-2H-pyran-4-yl)ethyl)-3,4-dihydropyrazino[2,3-b]pyrazin-2(1H)-one] | 0.005 to 250 |
| CO[C@H]1CC[C@@H](N2C(=O)CNc3ncc(-c4ccc(-c5nnc[nH]5)nc4C)nc32)C1 [Example 228, 1-((1R,3S)-3-methoxycyclopentyl)-7-(2-methyl-6-(4H-1,2,4-triazol-3-yl)pyridin-3-yl)-3,4-dihydropyrazino[2,3-b]pyrazin-2(1H)-one] | 0.005 to 250 |
| C[C@@H](O)c1ccc(-c2cnc3c(n2)N(CCC2CCOCC2)CC(=O)N3)cn1 [Example 75, (R)-6-(6-(1-hydroxyethyl)pyridin-3-yl)-4-(2-(tetrahydro-2H-pyran-4-yl)ethyl)-3,4-dihydropyrazino[2,3-b]pyrazin-2(1H)-one] | 0.005 to 250 |
| O=C1CNc2ncc(-c3ccc4[nH]ncc4c3)nc2N1CCC1CCOCC1 [Example 223, 7-(1H-indazol-5-yl)-1-(2-(tetrahydro-2H-pyran-4-yl)ethyl)-3,4-dihydropyrazino[2,3-b]pyrazin-2(1H)-one] | 500 to 1000 |
| CO[C@H]1CC[C@@H](CN2C(=O)CNc3ncc(-c4ccc(-c5nc[nH]n5)nc4)nc32)CC1 [Example 155, 7-(6-(1H-1,2,4-triazol-3-yl)pyridin-3-yl)-1-((cis-4-methoxycyclohexyl)methyl)-3,4-dihydropyrazino[2,3-b]pyrazin-2(1H)-one] | 0.005 to 250 |
| CC(C)(O)c1ccc(-c2cnc3c(n2)N(CC2CC2)CC(=O)N3)cn1 [Example 63, 4-(cyclopropylmethyl)-6-(6-(2-hydroxypropan-2-yl)pyridin-3-yl)-3,4-dihydropyrazino[2,3-b]pyrazin-2(1H)-one] | 250 to 500 |
| COCCN1C(=O)CNc2ncc(-c3ccc4cn[nH]c4c3)nc21 [Example 189, 7-(1H-indazol-6-yl)-1-(2-methoxyethyl)-3,4-dihydropyrazino[2,3-b]pyrazin-2(1H)-one] | 1000 to 10000 |
| Cc1cc(-c2cnc3c(n2)N(CC2CCOCC2)C(=O)CN3)cc2[nH]c(=O)[nH]c12 [Example 238, 7-(7-methyl-2-oxo-2,3-dihydro-1H-benzo[d]imidazol-5-yl)-1-((tetrahydro-2H-pyran-4-yl)methyl)-3,4-dihydropyrazino[2,3-b]pyrazin-2(1H)-one] | 500 to 1000 |
| O=C1CN(CCC2CCOCC2)c2nc(-c3cnc4[nH]ccc4c3)cnc2N1 [Example 43, 6-(1H-pyrrolo[2,3-b]pyridin-5-yl)-4-(2-(tetrahydro-2H-pyran-4-yl)ethyl)-3,4-dihydropyrazino[2,3-b]pyrazin-2(1H)-one] | 0.005 to 250 |
| COc1ccc(-c2cnc3c(n2)N(CCC2CCOCC2)C(=O)CN3)cn1 [Example 191, 7-(6-methoxypyridin-3-yl)-1-(2-(tetrahydro-2H-pyran-4-yl)ethyl)-3,4-dihydropyrazino[2,3-b]pyrazin-2(1H)-one] | 500 to 1000 |
| CC(C)(O)c1ccc(-c2cnc3c(n2)N2CCOCC2C(=O)N3)cn1 (stereo not shown) [Example 133, 9-[6-(1-hydroxy-isopropyl)-3-pyridyl]-6,11,4a-trihydromorpholino[4,3-e]pyrazino[2,3-b]pyrazin-5-one] | 500 to 1000 |
| CC(C)(O)c1ccc(-c2cnc3c(n2)N(CC2CCOC2)CC(=O)N3)cn1 (stereo not shown) [Example 103, 6-(6-(2-hydroxypropan-2-yl)pyridin-3-yl)-4-((tetrahydrofuran-3-yl)methyl)-3,4-dihydropyrazino[2,3-b]pyrazin-2(1H)-one] | 500 to 1000 |
| Cc1cc(-c2nc[nH]n2)ncc1-c1cnc2c(n1)N(CCC1CCOCC1)C(=O)CN2 [Example 260, 7-(4-methyl-6-(1H-1,2,4-triazol-3-yl)pyridin-3-yl)-1-(2-(tetrahydro-2H-pyran-4-yl)ethyl)-3,4-dihydropyrazino[2,3-b]pyrazin-2(1H)-one] | 0.005 to 250 |
| COCCN1C(=O)CNc2ncc(-c3ccc(-c4nc[nH]n4)c(F)c3C)nc21 [Example 244, 7-(3-fluoro-2-methyl-4-(1H-1,2,4-triazol-3-yl)phenyl)-1-(2-methoxyethyl)-3,4-dihydropyrazino[2,3-b]pyrazin-2(1H)-one] | 0.005 to 250 |
| Cc1cc(-c2nnc[nH]2)c(F)cc1-c1cnc2c(n1)N(CCC1CCOCC1)C(=O)CN2 [Example 247, 7-(5-fluoro-2-methyl-4-(4H-1,2,4-triazol-3-yl)phenyl)-1-(2-(tetrahydro-2H-pyran-4-yl)ethyl)-3,4-dihydropyrazino[2,3-b]pyrazin-2(1H)-one] | 0.005 to 250 |
| Nc1ccc(-c2cnc3c(n2)N(CCC2CCOCC2)C(=O)CN3)cn1 [Example 196, 7-(6-aminopyridin-3-yl)-1-(2-(tetrahydro-2H-pyran-4-yl)ethyl)-3,4-dihydropyrazino[2,3-b]pyrazin-2(1H)-one] | 0.005 to 250 |
| CC(C)(O)c1ccc(-c2cnc3c(n2)N(CC2CCCC2)CC(=O)N3)cn1 [Example 104, 4-(cyclopentylmethyl)-6-(6-(2-hydroxypropan-2-yl)pyridin-3-yl)-3,4-dihydropyrazino[2,3-b]pyrazin-2(1H)-one] | 0.005 to 250 |
| Cc1cc(-c2nnc[nH]2)ccc1-c1cnc2c(n1)N1CCN(C)CC1C(=O)N2 (stereo not shown) [Example 118, 9-(4-(4H-1,2,4-triazol-3-yl)-2-methylphenyl)-3-methyl-6,11,4a-trihydropiperazino[1,2-e]pyrazino[2,3-b]pyrazin-5-one] | 500 to 1000 |
| Cc1cc(-c2cnc3c(n2)N(CC2CCOCC2)C(=O)CN3)cc2[nH]c(N)nc12 [Example 264, 7-(2-amino-4-methyl-1H-benzo[d]imidazol-6-yl)-1-((tetrahydro-2H-pyran-4-yl)methyl)-3,4-dihydropyrazino[2,3-b]pyrazin-2(1H)-one] | 0.005 to 250 |
| Cc1cc(-c2nc[nH]n2)ncc1-c1cnc2c(n1)N(C(C)C)C(=O)CN2 [Example 179, 1-isopropyl-7-(4-methyl-6-(1H-1,2,4-triazol-3-yl)pyridin-3-yl)-3,4-dihydropyrazino[2,3-b]pyrazin-2(1H)-one] | 0.005 to 250 |
